Source: US5668161A, “Substituted thiazoles for the treatment of inflammation” (G.D. Searle & Co., priority 1996, dated 1997)

What was measured:
COX II enzyme = details: E. Meade et al; Futaki et al; cited from earlier work
murine COX-II = biological target: T1, murine COX-II (Mus musculus, UniProt Q05769); assay: biochemical
T1 sequence (Q05769 18-604): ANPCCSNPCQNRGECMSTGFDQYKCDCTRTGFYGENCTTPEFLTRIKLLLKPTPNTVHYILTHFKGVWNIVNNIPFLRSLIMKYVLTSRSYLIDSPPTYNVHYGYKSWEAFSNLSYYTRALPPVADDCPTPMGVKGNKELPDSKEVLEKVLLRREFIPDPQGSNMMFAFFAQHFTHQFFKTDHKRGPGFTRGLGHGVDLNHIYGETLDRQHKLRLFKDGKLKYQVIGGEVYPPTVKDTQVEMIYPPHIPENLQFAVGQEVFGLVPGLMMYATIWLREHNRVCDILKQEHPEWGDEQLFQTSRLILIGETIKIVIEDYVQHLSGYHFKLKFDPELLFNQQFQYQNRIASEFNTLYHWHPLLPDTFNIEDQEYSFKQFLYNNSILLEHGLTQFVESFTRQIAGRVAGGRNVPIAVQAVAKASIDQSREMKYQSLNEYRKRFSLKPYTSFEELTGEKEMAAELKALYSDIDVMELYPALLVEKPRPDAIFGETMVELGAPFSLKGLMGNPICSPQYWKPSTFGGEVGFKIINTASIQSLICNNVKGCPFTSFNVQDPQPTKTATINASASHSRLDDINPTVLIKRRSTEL

carrageenan foot edema = assay: Rat Carrageenan Foot Pad Edema Test; type: in vivo, rat (Male Sprague-Dawley); details: @ 20 mg/kg body weight, oral, 3 hours after carrageenan, read-out: RAT PAW EDEMA % Inhibition
Method: Male Sprague-Dawley rats were selected in each group so that the average body weight was as close as possible. Rats were fasted with free access to water for over sixteen hours prior to the test. […] One hour later a subplantar injection of 0.1 mL of 1% solution of carrageenan/sterile 0.9% saline was administered and the volume of the injected foot was measured with a displacement plethysmometer connected to a pressure transducer with a digital indicator. Three hours after the injection of the carrageenan, the volume of the foot was again measured. […] Rat Carrageenan-induced Analgesia Test

human COX-II = biological target: T2, human COX-II (Homo sapiens, UniProt P35354); assay: COX II activity in vitro, human (PGE2 by ELISA)
T2 sequence (P35354 18-604): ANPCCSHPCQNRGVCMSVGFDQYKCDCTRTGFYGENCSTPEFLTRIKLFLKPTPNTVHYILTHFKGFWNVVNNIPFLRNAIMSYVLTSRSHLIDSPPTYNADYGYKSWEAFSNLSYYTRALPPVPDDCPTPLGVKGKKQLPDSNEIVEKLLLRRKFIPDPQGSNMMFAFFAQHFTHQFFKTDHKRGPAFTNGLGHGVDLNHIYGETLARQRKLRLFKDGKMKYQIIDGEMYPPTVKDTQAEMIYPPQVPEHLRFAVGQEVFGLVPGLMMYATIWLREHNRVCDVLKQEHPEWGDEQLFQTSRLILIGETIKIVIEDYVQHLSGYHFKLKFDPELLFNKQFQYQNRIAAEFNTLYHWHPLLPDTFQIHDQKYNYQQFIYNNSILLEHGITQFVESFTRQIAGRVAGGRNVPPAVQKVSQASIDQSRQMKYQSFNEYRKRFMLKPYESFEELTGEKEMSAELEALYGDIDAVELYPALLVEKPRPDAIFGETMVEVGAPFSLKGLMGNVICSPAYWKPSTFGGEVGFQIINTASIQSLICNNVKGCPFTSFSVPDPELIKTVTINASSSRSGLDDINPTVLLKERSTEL

[1] = test system: carrageenan-induced hyperalgesic foot withdrawal; assay: Rat Carrageenan-induced Analgesia Test; type: in vivo, rat (Male Sprague-Dawley); details: for inhibition at 20 mg/kg: read-out: ANALGESIA % Inhibition, @ 20 mg/kg body weight, oral, 3 hours after carrageenan
Method: The carrageenan foot edema test was performed with materials, reagents and procedures essentially as described by Winter, et al., (Proc. Soc. Exp. Biol. Med., 111, 544 (1962)). Male Sprague-Dawley rats were selected in each group so that the average body weight was as close as possible. Rats were fasted with free access to water for over sixteen hours prior to the test. The rats were dosed orally (1 mL) with compounds suspended in vehicle containing 0.5% methylcellulose and 0.025% surfactant, or with vehicle alone. One hour later a subplantar injection of 0.1 mL of 1% solution of carrageenan/sterile 0.9% saline was administered and the volume of the injected foot was measured with a displacement plethysmometer connected to a pressure transducer with a digital indicator. Three hours after the injection of the carrageenan, the volume of the foot was again measured. The average foot swelling in a group of drug-treated animals was compared with that of a group of placebo-treated animals and the percentage inhibition of edema was determined (Otterness and Bliven, Laboratory Models for Testing NSAIDS, in Non-steroidal Anti-Inflammatory Drugs, (J. Lombardino, ed. 1985)). […] Rat Carrageenan-induced Analgesia Test
The analgesia test using rat carrageenan was performed with materials, reagents and procedures essentially as described by Hargreaves, et al., (Pain, 32, 77 (1988)). Male Sprague-Dawley rats were treated as previously described for the Carrageenan Foot Pad Edema test. Three hours after the injection of the carrageenan, the rats were placed in a special plexiglass container with a transparent floor having a high intensity lamp as a radiant heat source, positionable under the floor. After an initial twenty minute period, thermal stimulation was begun on either the injected foot or on the contralateral uninjected foot. […] The time until the rat withdraws its foot was then measured. The withdrawal latency in seconds was determined for the control and drug-treated groups, and percent inhibition of the hyperalgesic foot withdrawal determined.

murine COX-I = biological target: T3, murine COX-I (Mus musculus, UniProt P22437); assay: COX I activity in vitro, murine (PGE2 by ELISA)
T3 sequence (P22437 27-602): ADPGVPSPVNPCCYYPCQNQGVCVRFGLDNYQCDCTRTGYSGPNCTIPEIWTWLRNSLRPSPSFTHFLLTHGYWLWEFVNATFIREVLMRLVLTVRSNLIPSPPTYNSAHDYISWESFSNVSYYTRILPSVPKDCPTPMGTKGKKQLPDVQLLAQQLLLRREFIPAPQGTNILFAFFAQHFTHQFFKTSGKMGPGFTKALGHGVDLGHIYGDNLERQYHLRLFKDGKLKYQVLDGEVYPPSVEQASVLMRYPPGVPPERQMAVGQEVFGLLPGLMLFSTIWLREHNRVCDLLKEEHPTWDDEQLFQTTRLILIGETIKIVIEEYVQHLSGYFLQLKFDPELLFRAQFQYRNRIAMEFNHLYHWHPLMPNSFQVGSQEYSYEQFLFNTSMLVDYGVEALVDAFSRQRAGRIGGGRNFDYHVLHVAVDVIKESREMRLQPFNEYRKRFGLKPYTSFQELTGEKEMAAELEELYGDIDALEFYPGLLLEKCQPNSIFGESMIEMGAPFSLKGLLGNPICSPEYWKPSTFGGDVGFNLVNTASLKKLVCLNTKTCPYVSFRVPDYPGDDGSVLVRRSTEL

human COX-I = human COX-I (Homo sapiens, UniProt P23219); assay: COX I activity in vitro, human (PGE2 by ELISA)
human COX-I, sequence (P23219 24-599): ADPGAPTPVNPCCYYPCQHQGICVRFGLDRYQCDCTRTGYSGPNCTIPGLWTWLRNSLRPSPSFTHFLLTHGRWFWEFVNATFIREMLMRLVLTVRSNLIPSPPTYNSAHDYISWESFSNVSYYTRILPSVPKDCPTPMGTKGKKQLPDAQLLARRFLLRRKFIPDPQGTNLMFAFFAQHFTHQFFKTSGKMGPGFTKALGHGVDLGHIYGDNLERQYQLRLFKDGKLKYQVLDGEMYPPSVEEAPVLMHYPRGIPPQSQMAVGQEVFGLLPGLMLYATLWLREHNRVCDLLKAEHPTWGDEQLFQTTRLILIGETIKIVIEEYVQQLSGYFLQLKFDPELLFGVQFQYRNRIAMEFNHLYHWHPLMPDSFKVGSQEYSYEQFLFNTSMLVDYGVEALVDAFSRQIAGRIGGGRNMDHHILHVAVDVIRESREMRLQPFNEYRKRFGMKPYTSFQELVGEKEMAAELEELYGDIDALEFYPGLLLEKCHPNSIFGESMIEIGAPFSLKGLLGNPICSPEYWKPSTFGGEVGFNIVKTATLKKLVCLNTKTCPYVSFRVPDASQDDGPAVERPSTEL

IC50 (murine COX-II) | IC50 (human COX-II) | IC50 (murine COX-I) | IC50 (human COX-I) | SMILES | inhibition of the COX II enzyme (COX II enzyme) | inhibition at 20 mg/kg (carrageenan foot edema) | inhibition at 20 mg/kg [1] | inhibition at 30 mg/kg ([1]; read-out: ANALGESIA % Inhibition, a @ 30 mg/kg, oral, 3 hours after carrageenan)
 |  |  |  | COc1ccc2cc(CC(=O)O)ccc2c1 [6-methoxy-2-napthylacetic acid] | selectively inhibit the COX II enzyme |  |  | 
< 100 nM | < 100 nM | > 10000 nM |  | CS(=O)(=O)c1ccc(-c2sc(-c3ccccc3Cl)nc2-c2ccc(F)cc2)cc1 [Example 16, 2-(2-Chlorophenyl)-4-(4-fluorophenyl)-5-(4-methylsulfonylphenyl)thiazole] |  | 50% | 27% | 
100 nM |  | 500 nM |  | CS(=O)(=O)c1ccc(-c2sc(NCc3ccccc3)nc2-c2ccc(F)cc2)cc1 [Example 29, 4-(4-Fluorophenyl)-5-(4-methylsulfonylphenyl)-2-benzylaminothiazole] |  | 42% | 24% | 
 | < 100 nM |  | > 100000 nM | CS(=O)(=O)c1ccc(-c2sc(COc3cc(Cl)cc(Cl)c3)nc2-c2ccc(F)cc2)cc1 [Example 33, 2-[(3,5-Dichlorophenoxy)methyl)-4-(4-fluorophenyl)-5-[4-(methylsulfonyl)phenyl]thiazole] |  | 36% |  | 34%
 |  |  |  | CS(=O)(=O)Nc1ccc([N+](=O)[O-])cc1OC1CCCCC1 [N-(2-cyclohexyloxy-4-nitrophenyl)methanesulfonamide] | inhibits the COX II enzyme |  |  | 
